Data published in patent US10046082B2, “Collagen sponge containing a drug for promoting fracture healing and method for preparing the same” (WUHAN VSD MEDICAL SCIENCE & TECHNOLOGY CO., LTD., priority 2015, dated 2018).
Marks after values point to notes of the source that are not given here.

Experiments:
[1] = test system: tibia fracture sites of the rabbits; assay: Three-point bending force test at fracture sites of the rabbits; format: in vivo, New Zealand rabbits; conditions: n=5
Method: (§1) 1.1. Experimental Animal: New Zealand rabbits, each being male and having a weight of about 2 to 3 kg (12 to 16 weeks old) were used
(§2) 1.2. Experimental Grouping and Materials: experiments were divided into a control group (Control), a collagen sponge (CS) group, an ibandronate sodium (0.1 mg/kg IB) group, a group with a small dosage of ibandronate sodium+collagen sponge (SIB+CS, 0.125 mg IB), a group with a median dosage of ibandronte sodium+collagen sponge (MIB+CS, 0.25 mg IB), and a group with a large dosage of ibandronate sodium+collagen sponge (LIB+CS, 0.5 mg IB), in total 6 groups. 10 experimental animals are used for each group, […].
(§3) Preparation of materials for the SIB+CS group: 125 μl of 1 mg/ml IB was added into 600 ml of the enzymolysis solution of collagen to prepare a 50*25*5 mm collagen sponge;
(§4) Preparation of materials for the MIB+CS group: 250 μl of 1 mg/ml IB was added into 600 ml of the enzymolysis solution of collagen to prepare a 50*25*5 mm collagen sponge;
(§5) Preparation of materials for the LIB+CS group: 500 μl of 1 mg/ml IB was added into 600 ml of the enzymolysis solution of collagen to prepare a 50*25*5 mm collagen sponge.
Male New Zealand rabbits were anesthetized by marginal ear vein injection with sodium pentobarbital (3%, […]). After the anesthesia, the skin in the surgical area was depilated with 8% sodium sulfide and disinfected. The animals were fixed on their backs, and disinfected and covered with a sterile towel or sheet. A longitudinal incision was cut at the distal femur of the right leg near the patella. The patella was retracted to expose the inner and outer condyles of the distal femur. A 2 mm Kirschner wire was inserted retrogradely between the inner and outer condyles through an electric drill. The Kirschner wire went through the medullary cavity and came out of the skin from the proximal femur. The distal end of the Kirschner wire was cut off and ensured to be embedded under the surface of the knee joint. The knee was reset. An incision was made on the outer side of the distal femur, and the femur was exposed along the intermuscular space. Sufficient protection was provided for the surrounding soft tissues such as muscles and blood vessels. The femur was cut by a dental drill. The Control group and the IB group were not subjected to any treatment. The prepared materials for the CS group, the SIB+CS group, the MIB+CS group and the LIB+CS group were placed at the fracture sites of the animals, respectively. The incisions and the skin were washed with sterile normal saline and sutured with 5-0 nylon thread. Normal saline (0.1 ml/kg) and ibandronate sodium (0.1 ml/kg) were administered to the Control group and the IB group after surgery, respectively. All the animals were injected intramuscularly with buprenorphine (0.05 mg/kg) twice and with ciprofloxacin (10 mg/kg) once a day for 3 days after the surgery. All the animals were fed normally (lightless, quiet, at a temperature from 20 to 26° C., and at a humidity below 80%). X-ray photographs were taken on the day of surgery to check the condition of fracture apposition and alignment after the surgery. Further, half of the New Zealand rabbits were sacrificed at the 2nd week and the 4th week for detection, respectively.
3.2. Three-point bending force test at tibia fracture sites of the rabbits at the second week and the fourth week

[2] = test system: fracture sites; assay: Callus cross-sectional area in rabbit fracture healing experiment; format: in vivo, New Zealand rabbits; conditions: sponge placed at fracture site (IB group: 0.1 mg/kg IB after surgery), n=5
Method: as §1, §2, §3, §4, §5
Male New Zealand rabbits were anesthetized by marginal ear vein injection with sodium pentobarbital (3%, […]). After the anesthesia, the skin in the surgical area was depilated with 8% sodium sulfide and disinfected. […]

## CCCCCN(C)CCC(O)(P(=O)(O)O)P(=O)(O)O [IB, ibandronate sodium]
[1]; 2nd week
  Compressive Strength: 4.7 ± 1.8 Nmm
  Elastic Modulus: 7.3 ± 2.2 MPa
  Limit Load: 6.8 ± 1.7 N
[1]; 4th week
  Compressive Strength: 64.6 ± 7.3^j Nmm
  Elastic Modulus: 88.2 ± 19.5 MPa
  Limit Load: 95.9 ± 7.04^i,j N
[2]; 2nd week after surgery
  callus cross-sectional area (CSA): 89.9 ± 3.6^a,h,i,j,k mm^2
[2]; 4th week after surgery
  callus cross-sectional area (CSA): 120.5 ± 7.8^a,h,i,j,k mm^2
